# According to patent US20050038000A1, “Methods and compositions for the treatment of amyloid-and epileptogenesis-associated diseases” (priority 2003, published 2005):
# System: spontaneous recurrent seizures
# Assay: "spontaneous recurrent seizures" (SRS) model of epilepsy
# Assay type: in vivo
# Settings: rat, 20 mg/kg/day i.v. for 10 day
# Experimental: The “spontaneous recurrent seizures” (SRS) model of epilepsy is used to evaluate candidate compounds in a model for Phase 1 epileptogenesis (see, e.g., Mello, E. et al., Epilepsia (1993) 34:985; Cavalheiro, J. et al., Epilepsia (1991) 32:778). In the SRS model, an adult male Sprague-Dawley rat (c. 260 g) is given kainic acid by injection ([…].). Within 25 minutes, the animal enters status epilepticus, which typically lasts for 15-20 hours (although about 10% of animals die at this stage). The rat is allowed to spontaneously recover and is given food and water ad lib. and maintained on a 12 hour light/dusk cycle. Beginning on about day 13-15, the rats develop spontaneous recurrent seizures, which occur at the rate of about 4-5 per week. The rats are videotaped 8 hours per day, and the videotapes are reviewed for behavioral seizures (including head nodding, forelimb clonus, and rearing), which are counted. The animals are watched for a few weeks to a few months (2 weeks to three months), permitting evaluation of a sufficient number of seizures. An experimental compound for evaluation can be administered at either of two times: Time 1, on Day 1, after the cessation of status epilepticus but before the onset of SRS; or Time 2, on Day 30, when the rats have been experiencing SRS for about two weeks. […]
structure (smiles),measurement,setting,value
O=C1NC(=O)C(c2ccccc2)(c2ccccc2)N1 [phenytoin],preventing the onset of seizures,"administered at Time 1 (Day 1, before onset of SRS)",ineffective
same,effective at decreasing seizure frequency by 50% or more,"administered at Time 2 (Day 30, established SRS)",75%
